# Assay results reported in ChEMBL document CHEMBL1125090, “Expedient synthesis and biochemical properties of an [125I]-labeled analogue of glyburide, a radioligand for ATP-inhibited potassium channels” (J Med Chem, 1990).
# Test: Inhibition of [125I]-I binding to ATP-inhibited Potassium channel receptor of Rat brain homogenate
row,SMILES,Ki [nM]
1,Cc1cnc(C(=O)NCCc2ccc(S(=O)(=O)NC(=O)NC3CCCCC3)cc2)cn1 [GLIPIZIDE],8.2
2,COc1ccc(I)cc1C(=O)NCCc1ccc(S(=O)(=O)NC(=O)NC2CCCCC2)cc1,2.6
3,COc1ccc(Cl)cc1C(=O)NCCc1ccc(S(=O)(=O)NC(=O)NC2CCCCC2)cc1 [GLYBURIDE],0.608
